Assay results: patent US20190328833A1, “POLYMYXIN-ALGINATE OLIGOMER CONJUGATES” (AlgiPharma AS, priority 2016, published 2019)

What was measured:
[1] = system: human kidney (HK-2) cell line; assay: In vitro cytotoxicity: MTT assay; format: cell-based; details: HK-2, 72 h, concentration of the antibiotic or the antibiotic within the conjugate, mean (n=18)
Experimental: An MTT assay was used to assess cell viability in a human kidney (HK-2) cell line (72 h incubation). HK-2 cells were seeded into sterile 96-well microtitre plates (1×10^5 cells/mL) in 0.1 mL/well of media (K-SFM) containing L-glutamine, EGF and BPE. They were allowed to adhere for 24 h. The medium was then removed and a range of concentrations of test compounds (0.2 μm filter-sterilized) dissolved in fresh culture media were added to the cells. After a further 67 h incubation, MTT, 3-(4,5-dimethylthiazol-2-yl)-2,5-diphenyltetrazolium bromide, (20 μL of a 5 mg/mL solution in PBS) was added to each well and the cells were incubated for a further 5 h. The medium was then removed and the precipitated formazan crystals solubilized by addition of optical grade DMSO (100 μL) over 30 min. Absorbance was measured at 540 nm using a microtitre plate reader. Cell viability was expressed as a percentage of the viability of untreated control cells. The IC50 values were expressed as mean (n=18).
The IC50 values summarised below represent the concentration of the antibiotic (polymyxin B, colistin sulphate or colistin methanesulphonate (CMS)) or the antibiotic within the conjugate required to inhibit HK2 cells growth by half. OligoG is included as a control.

[2] = system: V4 Acinetobacter baumanii MDR ACB; assay: MIC, broth microdilution, V4; format: cell-based; details: n=3, median
Experimental: (§1) The strains used for susceptibility testing include both culture collection strains and clinical isolates (Table 1). To the extent indicated below, their known relevant genotypes and origin have been described by Khan et al. supra.
(§2) The MICs were determined using the broth microdilution method in accordance with standard guidelines (CLSI 2012). Test organisms were suspended in Mueller Hinton cation adjusted (MH) broth (100 μL, 1-5×10^4 CFU/mL) and incubated in 96-well microtitre plates in serial two-fold dilutions of the test compounds. The MIC was defined as the lowest concentration of test compound that produced no visible growth after 16-20 hours.

[3] = system: Acinetobacter baumanii (V19); assay: Two-compartment static dialysis bag PK/PD model, colony counts; format: cell-based; details: at MIC (0.25 μg/ml); after 4 h; Batch 6
Text: Studies were undertaken to investigate the PK/PD profiles of the OligoG-colistin conjugates (Batch 6) as compared to non-conjugated colistin in vitro. This is particularly important in nanoscale drug delivery systems where the incorporation of conventional small molecule drugs into nano-sized structures is associated with PK/PD properties that are substantially altered from the original drug. The model system previously described in Azzopardi (supra) was employed.
The unmasking of OligoG-colistin conjugates was simulated using the Azzopardi two-compartment static dialysis bag model under infinite sink conditions (total volume, 20 ml; inner-compartment volume, 5 ml). Dialysis membrane (10,000 g/mol molecular weight cutoff [MWCO]) was pre-soaked for 15 to 30 min in distilled water (dH2O), secured with dialysis clips, and suspended from an injection port to separate the inner compartment (IC) from the outer compartment (OC) in a sterilized 25-ml beaker sealed with a sterile medical-grade polyurethane membrane (Tegaderm).
The model system was prepared under aseptic conditions in a class 2 laminar airflow cabinet and transferred to a shaking incubator set at 37° C. in ambient air and constant orbital agitation at 70 rpm for 48 h. […] Samples were collected from the OC at various time points and characterised by bacterial colony counts (CFU/ml) using Miles and Misra Method.

[4] = system: Pseudomonas aeruginosa biofilms; assay: Disruption of biofilm development (CLSM, live/dead stain); format: cell-based; details: 2×MIC-MIC/8; 24 h
Experimental: (§3) These experiments investigated whether OligoG-colistin conjugates could inhibit biofilm development more effectively than unconjugated forms of colistin. First, stock solutions of the test compounds were prepared at 1 mg/mL in MH broth and used to prepare a range of antibiotic concentrations (2×MIC-MIC/8) using double dilutions in MH broth across wells of a Greiner glass-bottomed optical 96-well plate (90 μL per well). Sterility (100 μL of MH broth) and growth (90 μL of MH broth plus 10 μL of tested bacterial pathogen) controls were also prepared. Overnight bacterial cultures were grown in TS broth (TSB) and diluted in MH broth to achieve an OD625 of 0.5, then 10 μL was added to the wells. Plates were wrapped in parafilm and incubated for 24 h on a rocker (20 rpm) at 37° C. After a 24 h incubation, the supernatant was carefully removed from all wells and 3 μL of live/dead stain (Live/dead Baclight Bacterial Viability kit; prepared by mixing 1 μL of component A and B in 1 mL of PBS) was added. The plate was wrapped in foil and kept in the dark for 15 min. Lastly, 47 μL of PBS was added to all tested wells. The plate was wrapped in parafilm and kept in the dark until it was analysed by confocal laser scanning microscopy (CLSM), n=2.

V5 Escherichia coli = assay: MIC, broth microdilution, V5; format: cell-based; details: n=3, median
Experimental: as §1, §2

[5] = system: V19 Acinetobacter baumannii; assay: MIC, broth microdilution, V19; format: cell-based; details: for MIC V19: n=3, median
Experimental: as §1, §2

V7 Escherichia coli = assay: MIC, broth microdilution, V7; format: cell-based; details: for MIC V7: n=3, median
Experimental: as §1, §2

[6] = system: TNFα release from HK2 cells; assay: TNFα release from HK2 cells (ELISA); format: cell-based, human; details: 72 h incubation, FIG. 8
Experimental: As a model inflammatory cytokine involved in polymyxin cyto toxicity, TNFα release from HK2 cells in response to polymyxins and OligoG-polymyxin conjugates was measured by ELISA. HK-2 cells were seeded into sterile 96-well microtitre plates (1×10^5 cells/mL) in 0.1 mL/well of media (K-SFM) containing L-glutamine, EGF and BPE. They were allowed to adhere for 24 h. The medium was then removed and a range of concentrations of test compounds (0.2 μm filter-sterilized) dissolved in fresh culture media were added to the cells. After 72 h incubation, microtiter plates were centrifuged (1500 rpm, 3 min) and the supernatant was transferred into a new 96-well microtitre plate.
TNFα ELISA Assay was carried out according the manufacturer's instructions (Thermo Scientific, ESS0001). Briefly, 100 μL of coating antibody (1:100 dilution in PBS) was added to each well of 96-well microtitre plate. […] Absorbance was measured at 450 nm minus 550 nm.
Standard curves were generated by plotting the average absorbance obtained for each standard concentration on the vertical (Y) axis versus the corresponding human TNFα concentration (pg/mL) on the horizontal (X) axis. Human TNFα amount in each sample was determined by interpolating from the absorbance value (Y-axis) to human TNFα concentration (X-axis) using the standard curve. […]

[7] = system: NH57388A Pseudomonas aeruginosa; assay: MIC, broth microdilution, NH57388A; format: cell-based; details: Batch 6; n=3, median
Experimental: as §1, §2

[8] = system: V2 Pseudomonas aeruginosa (301); assay: MIC, broth microdilution, V2; format: cell-based; details: for MIC V2: n=3, median
Experimental: as §1, §2

[9] = system: V2 Pseudomonas aeruginosa, V3 Klebsiella pneumoniae, V19 Acinetobacter baumannii, V7 Escherichia coli; assay: Bacterial growth curves (absorbance at 600 nm, 48 h); format: cell-based
Experimental: Finally, bacterial growth curves, using the mean of the previously determined MIC values for OligoG-colistin conjugates (amide and ester linked) and colistin sulfate, were used to compare their pharmacokinetic profiles in vitro. For comparison, bacterial growth in the presence of i) OligoG, ii) PRONOVA (high molecular weight alginate) and iii) OligoG plus colistin, both at concentrations corresponding to the amounts present in the corresponding conjugates, was measured. Sterile 96-well microtitre plates were set up for MIC assay as previously described (range: MIC×16 to MIC/16, 0). Plates were then wrapped in parafilm and placed in a microtitre plate reader at 37° C., 5% CO2 and absorbance at 600 nm was measured hourly for 48 h. Experiments were conducted in triplicate and results were presented as mean values (n=3).

[10] = system: V1 Pseudomonas aeruginosa R22; assay: MIC, broth microdilution, V1; format: cell-based; details: n=3, median
Experimental: as §1, §2

[11] = system: V6 Klebsiella pneumoniae IR25; assay: MIC, broth microdilution, V6; format: cell-based; details: n=3, median
Experimental: as §1, §2

V3 Klebsiella pneumoniae = assay: MIC, broth microdilution, V3; format: cell-based; details: for MIC V3: n=3, median
Experimental: as §1, §2

V11 Escherichia coli = assay: MIC, broth microdilution, V11; format: cell-based; details: Batch 6; n=3, median
Experimental: as §1, §2

Pseudomonas aeruginosa = assay: MIC quoted for the biofilm study; format: cell-based; details: FIG. 9 legend and Example 7; strain not stated
Experimental: as §2
as §3, with “After a 24 h incubation, the supernatant was carefully removed from all wells and 3 μL of live/dead stain (Live/dead Baclight Bacterial Viability kit; prepared by mixing 1 μL of component A and B in 1 mL of PBS) was added. The plate was wrapped in foil and kept in the dark for 15 min. Lastly, 47 μL of PBS was added to all tested wells.” left out

Work on colistin methanesulphonate [CMS] yielded an IC50 ([1]; Batch 5) of 13970 ng/mL.
colistin sulfate was tested, and the “MIC V4” value ([2]; Batch 4) was 500 ng/mL, the “MIC V4” value ([2]; Batch 6) was 500 ng/mL and the “reduction of viable bacterial counts” value [3] was ~2 fold. For the same substance, the effect on biofilms [4] was “only a small effect on P. aeruginosa biofilms”, the “MIC V5” value (V5 Escherichia coli; Batch 2) was 0.02 ng/mL and the “MIC V5” value (V5 Escherichia coli; Batch 4) was <16 ng/mL. For the same substance, the “MIC V5” value (V5 Escherichia coli; Batch 6) was <8 ng/mL, the “MIC V19” value ([5]; Batch 2) was <62.5 ng/mL and the “MIC V19” value ([5]; Batch 4) was <16 ng/mL. The “MIC V19” value ([5]; Batch 6) was 250 ng/mL, the “median MIC” value ([5]; FIG. 3 legend, V19, MIC used for growth curves) was 2 ng/mL and the “MIC V7” value (V7 Escherichia coli; Batch 4) was 125 ng/mL. The “MIC V7” value (V7 Escherichia coli; Batch 6) was 250 ng/mL, the “median MIC” value (V7 Escherichia coli; FIG. 4 legend, V7, MIC used for growth curves) was 63 ng/mL and the IC50 ([1]; Batch 4) was 25000 ng/mL. The IC50 ([1]; Batch 5) was 10980 ng/mL, the “TNFα release, adjusted for cell viability” value [6] was “greater TNFα release” and the “MIC NH57-388A” value [7] was 250 ng/mL. For the same substance, the “MIC V2” value ([8]; Batch 2) was 250 ng/mL, the “MIC V2” value ([8]; Batch 4) was 250 ng/mL and the “MIC V2” value ([8]; Batch 6) was 500 ng/mL. The “median MIC” value ([8]; FIG. 1 legend, V2, MIC used for growth curves) was 63 ng/mL, the “bacterial growth / regrowth in growth curves” value ([9]; FIGS. 1-5, 48 h) was “more rapid bacterial regrowth” and the “inhibition of bacterial re-growth” value ([9]; at the median of previously determined MIC values across all batches) was “shortest inhibition of bacterial re-growth”. The “concentration inhibiting bacterial re-growth for up to 48 h” value ([9]; up to 48 h) was > 8 ×MIC, the “MIC V1” value ([10]; Batch 4) was 250 ng/mL and the “MIC V1” value ([10]; Batch 6) was 500 ng/mL. The “MIC V6” value ([11]; Batch 4) was 62.5 ng/mL, the “MIC V6” value ([11]; Batch 6) was 63 ng/mL and the “MIC V3” value (V3 Klebsiella pneumoniae; Batch 2) was <125 ng/mL. The “MIC V3” value (V3 Klebsiella pneumoniae; Batch 4) was <63 ng/mL, the “MIC V3” value (V3 Klebsiella pneumoniae; Batch 6) was 125 ng/mL and the “median MIC” value (V3 Klebsiella pneumoniae; FIG. 2 legend, V3, MIC used for growth curves) was 8 ng/mL. The “MIC V11” value (V11 Escherichia coli) was 31 ng/mL and the “median MIC” value (Pseudomonas aeruginosa) was 63 ng/mL.
In the case of polymyxin B, the “MIC V4” value ([2]; Batch 4) is reported as 125 ng/mL, the “MIC V4” value ([2]; Batch 6) is reported as 125 ng/mL and the “MIC V5” value (V5 Escherichia coli; Batch 2) is reported as <0.008 ng/mL. The “MIC V5” value (V5 Escherichia coli; Batch 4) was <16 ng/mL, the “MIC V5” value (V5 Escherichia coli; Batch 6) was <4 ng/mL and the “MIC V19” value ([5]; Batch 2) was <62.5 ng/mL. For the same substance, the “MIC V19” value ([5]; Batch 4) was 31 ng/mL, the “MIC V19” value ([5]; Batch 6) was 125 ng/mL and the “MIC V7” value (V7 Escherichia coli; Batch 4) was 63 ng/mL. The “MIC V7” value (V7 Escherichia coli; Batch 6) was 500 ng/mL, the IC50 ([1]; Batch 4) was 12000 ng/mL and the IC50 ([1]; Batch 5) was 12630 ng/mL. For the same substance, the “TNFα release, adjusted for cell viability” value [6] was “greater TNFα release”, the “MIC NH57-388A” value [7] was 250 ng/mL and the “MIC V2” value ([8]; Batch 2) was 250 ng/mL. The “MIC V2” value ([8]; Batch 4) was 500 ng/mL, the “MIC V2” value ([8]; Batch 6) was 500 ng/mL and the “MIC V1” value ([10]; Batch 4) was 250 ng/mL. The “MIC V1” value ([10]; Batch 6) was 250 ng/mL, the “MIC V6” value ([11]; Batch 4) was 125 ng/mL and the “MIC V6” value ([11]; Batch 6) was 125 ng/mL. The “MIC V3” value (V3 Klebsiella pneumoniae; Batch 2) was <125 ng/mL, the “MIC V3” value (V3 Klebsiella pneumoniae; Batch 4) was 125 ng/mL and the “MIC V3” value (V3 Klebsiella pneumoniae; Batch 6) was 125 ng/mL. The “MIC V11” value (V11 Escherichia coli) was 63 ng/mL.
